What was measured:
[1] = tested on: human lung cancer cell NCI-H3122; assay: Inhibition of proliferation in vitro, SRB method; assay type: cell-based; settings: NCI-H3122 cells expressing EML4-ALK fusion protein, 72 hours, mean±standard deviation
Description: 1.1 Cells: human lung cancer cell line NCl—H3122, expressing EML4-ALK fusion protein.
1.2 Main reagents: sulfonyl rhodamine B, RPMI-1640 liquid medium, dimethyl sulfoxide (DMSO), trichloromethane (chloroform).
1.3 Instruments: Varioskan Flash microplate reader.
1.4 Solution preparation: an appropriate amount of a series of test compounds was taken and dissolved using 5% chloroform+95% DMSO, to form a stock solution of 20 mM, which was stored at −20° C. in aliquots. The positive drug Crizotinib was taken and dissolved using 5% chloroform+95% DMSO, and the stock solution was diluted with fresh medium to a working concentration before use. 95 μl DMSO and 5 μl chloroform were taken, mixed together, and diluted with fresh medium to a working concentration before use.
The tumor cell line used in tests was cultured in RPM11640 medium containing 10% inactivated Hyclone serum or fetal bovine serum, 100 IU/mL penicillin and 100 IU/mL streptomycin, in a 5% CO2 incubator at 37° C. NCl—H3122 cells were inoculated into a 96-well plate at 5000/well. It was ensured that the cells were in logarithmic growth phase during the whole test.
Groups of series of test compounds, negative control and Crizotinib (positive control) were set up in this test. For each test compound group, 6 concentration gradients by 3-fold serial dilution were set, and three wells were for each concentration. For positive control group, 6 concentration gradients by 3-fold serial dilution were set, and three wells were for each concentration. Negative control was 5% chloroform+95% DMSO (the same concentration as that of test compound at 100 nM), and 6 wells were set.
After the cells were treated with the drugs for 72 hours, the culture medium was discarded. A pre-chilled 10% trichloroacetic acid (TCA) solution was added into each well to fix the cells and the plate was placed in a refrigerator at 4° C. to fix. Each well of the plate was washed with deionized water for 5 times to remove trichloroacetic acid solution. After being dried in air, each well was added with SRB solution (4 mg/ml) prepared with 1% acetic acid and then kept for 20 minutes at room temperature. After the liquid was discarded, each well was washed with 1% acetic acid for 5 times to remove uncombined SRB dye, and then dried in air. An appropriate volume of 10 mM Tris-base (trimethylolamine methane) solution at pH 10.5 was added into each well to dissolve the cells. The plate was shaken on a plate shaker for 10 minutes. The absorbance (OD) value was measured at a wavelength of 490 nm in a microplate reader.
According to the OD values measured by microplate reader, an inhibition rate was calculated as the following formula: Survival rate (%)=OD of drug well/OD of control well×100%,
If the survival rate was ≥100%, it was recorded as 100%.
Using Calcusyn software, IC50 was calculated, and mean and standard deviation thereof were calculated, and the data was expressed as: mean±standard deviation.

[2] = Stability in monkey liver microsomes in vitro; assay type: in vitro ADME; settings: for half-life at 0.01 μmol/L: monkey liver microsomes 0.5 mg/mL protein, NADPH, 37° C., 1 μmol/L test compound; for half-life period compared to the original drug Brigatinib: monkey liver microsomes, statement in words; for Prolonging rates: prolongation of t1/2 in monkey liver microsomes versus Brigatinib
Description: 300 μL of a final incubation system contains 30 μL of monkey liver microsomes (protein concentration: 0.5 mg/mL, American BD Company), 30 μL of NADPH+MgCl2, 3 μL of a substrate (a solution of 1 μmol/L test compound in acetonitrile) and 237 μL of PBS buffer solution. The above incubation system was made in duplicate, each of 0.3 mL.
For each sample, an evenly mixed solution of the substrate and enzyme with a total volume of 270 μL was first prepared, and after pre-incubation at 37° C. for 5 min, 30 μL of NADPH+MgCl2 was added and mixed. 40 μL of the reaction solution was taken respectively at 0, 15, 30, 60 and 90 min, and the reaction was stopped by 300 μL of ice-cold acetonitrile containing an internal standard. In addition, three blanks (KB) were set, each of 300 μL (KB1: no NADPH; KB2: no substrate; KB3: no enzyme).
40 μL of the incubation sample was pipetted out, added with 400 μL of ice-cold acetonitrile containing an internal standard, vortexed for 5 min and centrifuged (13000 rpm, 4° C.) for 10 min. 80 μL of the supernatant was pipetted out in a loading plate, and then 80 μL of 50% acetonitrile aqueous solution was added to the plate and mixed. 1 μL of the mixture was pipetted out for LC/MS/MS assay and the chromatogram was recorded.

| Structure (SMILES) | IC50 [1] [nM] | half-life at 0.01 μmol/L [2] [min] | half-life period compared to the original drug Brigatinib [2] | Prolonging rates [2] [%] |
| --- | --- | --- | --- | --- |
| COc1cc(N2CCC(N3CCN(C)CC3)CC2)ccc1Nc1ncc(Cl)c(Nc2ccccc2P(C)(C)=O)n1 [Brigatinib, 5-chloro-N^4-[2-(dimethylphosphonyl)phenyl]-N^2-{2-methoxy-4-[4-(4-methylpiperazin-1-yl)piperidin-1-yl]phenyl}pyrimidine-2,4-diamine] | 13.3 ± 1.6 | 170 | – | – |
| [2H]C([2H])([2H])Oc1cc(N2CCC(N3CCN(C)CC3)CC2)ccc1Nc1ncc(Cl)c(Nc2ccccc2P(C)(C)=O)n1 [Compound I-1, (2-((5-chloro-2-((2-[D3]methoxy-4-(4-(4-methylpiperazin-1-yl)piperidin-1-yl)phenyl)amino)pyrimidin-4-yl)amino)phenyl)dimethyl phosphorus oxide] | 10 ± 1.05 | 229 | significantly prolong the half-life period | 35 |
| [2H]C([2H])([2H])N1CCN(C2CCN(c3ccc(Nc4ncc(Cl)c(Nc5ccccc5P(C)(C)=O)n4)c(OC)c3)CC2)CC1 [Compound I-2, (2-((5-chloro-2-((2-methoxy-4-(4-(4-[D3]methylpiperazin-1-yl)piperidin-1-yl)phenyl)amino)pyrimidin-4-yl)amino)phenyl)dimethyl phosphorus oxide] | 9.45 ± 1.79 | 236 | significantly prolong the half-life period | 39 |
| [2H]C([2H])([2H])Oc1cc(N2CCC(N3CCN(C([2H])([2H])[2H])CC3)CC2)ccc1Nc1ncc(Cl)c(Nc2ccccc2P(C)(C)=O)n1 [Compound I-3, (2-((5-chloro-2-((2-[D3]methoxy-4-(4-(4-[D3]methylpiperazin-1-yl)piperidin-1-yl)phenyl)amino)pyrimidin-4-yl)amino)phenyl)dimethyl phosphorus oxide] | 12.7 ± 2.37 | 199 | – | 17 |
| [2H]C1([2H])CN(C)CC([2H])([2H])N1C1CCN(c2ccc(Nc3ncc(Cl)c(Nc4ccccc4P(C)(C)=O)n3)c(OC)c2)CC1 [Compound I-4, (2-((5-chloro-2-((2-methoxy-4-(4-(4-methyl[2,2,6,6-D4]piperazin-1-yl)piperidine-1-yl)phenyl)amino)pyrimidin-4-yl)amino)phenyl)dimethyl phosphorus oxide] | 11.1 ± 2.07 | 176 | – | 4 |
| [2H]C1([2H])N(C)C([2H])([2H])C([2H])([2H])N(C2CCN(c3ccc(Nc4ncc(Cl)c(Nc5ccccc5P(C)(C)=O)n4)c(OC)c3)CC2)C1([2H])[2H] [Compound I-6, (2-((5-chloro-2-((2-methoxy-4-(4-(4-methyl[D8]piperazin-1-yl)piperidin-1-yl)phenyl)amino)pyrimidin-4-yl)amino)phenyl)dimethyl phosphorus oxide] | 9.99 ± 2.31 | 223 | significantly prolong the half-life period | 31 |
| [2H]C([2H])([2H])N1C([2H])([2H])CN(C2CCN(c3ccc(Nc4ncc(Cl)c(Nc5ccccc5P(C)(C)=O)n4)c(OC)c3)CC2)CC1([2H])[2H] [Compound I-7] | 9.89 ± 0.76 | 227 | significantly prolong the half-life period | 34 |
| [2H]C1([2H])CN(C2CCN(c3ccc(Nc4ncc(Cl)c(Nc5ccccc5P(C)(C)=O)n4)c(OC)c3)CC2)CC([2H])([2H])N1C [Compound I-9, (2-((5-chloro-2-((2-methoxy-4-(4-(4-methyl[3,3,5,5-D4]piperazin-1-yl)piperidin-1-yl)phenyl)amino)pyrimidin-4-yl)amino)phenyl)dimethyl phosphorus oxide] | 7.65 ± 1.07 | 214 | – | 26 |
| C[C@@H](Oc1cc(-c2cnn(C3CCNCC3)c2)cnc1N)c1c(Cl)ccc(F)c1Cl [Crizotinib, reference compound] | 11.1 ± 0.69 | – | – | – |

From US10717753B2, “Deuterium-modified brigatinib derivatives, pharmaceutical compositions comprising same, and use thereof” (Chia Tai Tianqing Pharmaceutical Group Co., Ltd., priority 2015, dated 2020)
